System: hippocampus of 5XFAD mice
Experiment: RNA sequencing of hippocampus of 5XFAD mice after chronic CI-994 treatment
Format: in vivo, mouse
Settings: 5XFAD mice hippocampus
Source text: To test if high-throughput genome-wide RNA sequencing can be readily used a biomarker for HDAC inhibitor-mediated treatment of cognitive decline associate with AD, a mouse model of familial AD, the SXFAD mice were used. These mice harbor point mutations in the AD-related pathogenic presenilin and amyloid precursor protein pathways, and recapitulate the majority of human AD pathologies, including amyloid-β deposition, neurodegeneration, and cognitive impairments. […] After completion of treatment, mice were sacrificed, their brain regions dissected, and total RNA extracted of the hippocampus, a brain region important for memory formation and storage. The RNA was quality controlled using Agilent's bioanalyzer 5' and 3'-end labeled and sequenced on an Illumina HiSeq sequencer with 200 million reads per sample. Sequence reads were aligned to the mouse genome, and quality-filtered. Differential analysis was then conducted using Cuffdiff with IIlumina iGenome mm9 UCSC gene annotation.

[1] = CI-994 1 mg/kg i.p. daily 1 month

SMILES: CC(=O)Nc1ccc(C(=O)Nc2ccccc2N)cc1 [CI-994, 4-(acetylamino)-N-(2-aminophenyl)benzamide]
- 1700026L06Rik expression level [1]: 0.5624
- 4833427G06Rik expression level [1]: 1.156
- Abhd2 expression level [1]: 16.6349
- Acaa2 expression level [1]: 15.6611
- Acacb expression level [1]: 0.6669
- Acss3 expression level [1]: 0.8644
- Adcy1 expression level [1]: 121.693
- Aebp1 expression level [1]: 4.334
- Aldh1a1 expression level [1]: 16.8375
- Aldh2 expression level [1]: 35.3667
- Als2cr4 expression level [1]: 14.5748
- Angptl2 expression level [1]: 1.519
- Antxr1 expression level [1]: 4.106
- Apln expression level [1]: 9.121
- Arc expression level [1]: 77.622
- Arhgap28 expression level [1]: 0.18
- Arsg expression level [1]: 13.3427
- Atf4 expression level [1]: 63.7327
- Atp2b3 expression level [1]: 41.3436
- Atp7a expression level [1]: 1.987
- Atp11c expression level [1]: 3.649
- B230217C12Rik expression level [1]: 41.8821
- BC049635 expression level [1]: 0.514
- Baiap2l1 expression level [1]: 0.6224
- Bmp6 expression level [1]: 5.713
- Bmp7 expression level [1]: 2.931
- Brwd3 expression level [1]: 1.786
- Bst2 expression level [1]: 4.307
- Btbd3 expression level [1]: 34.9585
- C1ql2 expression level [1]: 39.6924
- C1qtnf5 expression level [1]: 15.0312
- C230081A13Rik expression level [1]: 8.241
- C530008M17Rik expression level [1]: 17.1167
- Cabp7 expression level [1]: 205.981
- Car14 expression level [1]: 6.584
- Ccdc141 expression level [1]: 2.317
- Ccnd1 expression level [1]: 15.4148
- Cdh3 expression level [1]: 0.3686
- Cdr2 expression level [1]: 5.994
- Cndp1 expression level [1]: 0.2514
- Cnst expression level [1]: 10.5531
- Col4a3 expression level [1]: 0.1459
- Col4a4 expression level [1]: 0.1702
- Col17a1 expression level [1]: 0.02351
- Coro2b expression level [1]: 59.6533
- Cpn1 expression level [1]: 0.2381
- Cpne7 expression level [1]: 72.8282
- Cpt1b expression level [1]: 0
- Crtac1 expression level [1]: 33.2962
- Crtap expression level [1]: 2.382
- Ctnnal1 expression level [1]: 4.538
- Cul4b expression level [1]: 14.4206
- Cxcl14 expression level [1]: 62.1186
- Dab2 expression level [1]: 2.765
- Dclk3 expression level [1]: 6.883
- Dcn expression level [1]: 18.2706
- Dgkh expression level [1]: 8.277
- Dio2 expression level [1]: 13.4167
- Dmrt3 expression level [1]: 0.6692
- Dnahc11 expression level [1]: 0.2181
- Doc2b expression level [1]: 33.8561
- Dpep1 expression level [1]: 0.1399
- Dsg2 expression level [1]: 0.9993
- Dsp expression level [1]: 8.258
- Ephx1 expression level [1]: 17.8668
- Eps8l2 expression level [1]: 1.379
- F11r expression level [1]: 3.438
- Fads2 expression level [1]: 8.701
- Fam38a expression level [1]: 0.6613
- Fam163b expression level [1]: 67.8893
- Fras1 expression level [1]: 0.749
- Fst expression level [1]: 1.755
- Fxyd1 expression level [1]: 37.5709
- Fzd4 expression level [1]: 3.613
- Gabra2 expression level [1]: 45.2624
- Galm expression level [1]: 1.687
- Gas6 expression level [1]: 39.2248
- Glb1l2 expression level [1]: 0.5483
- Glul expression level [1]: 251.125
- Gm221 expression level [1]: 0.499
- Gm853 expression level [1]: 0
- Gm11744 expression level [1]: 2.594
- Gng7 expression level [1]: 64.066
- Gprc5c expression level [1]: 1.254
- Grm2 expression level [1]: 13.2878
- Gyltl1b expression level [1]: 0.192
- Hapln1 expression level [1]: 10.6547
- Hbb-b2 expression level [1]: 3.714
- Hemk1 expression level [1]: 4.074
- Homer2 expression level [1]: 14.9404
- Hsd11b1 expression level [1]: 28.1849
- Hspg2 expression level [1]: 0.7372
- Ifi27l1 expression level [1]: 36.0763
- Igfbp5 expression level [1]: 38.2003
- Igfbp7 expression level [1]: 18.1462
- Igfn1 expression level [1]: 0.1271
- Iqgap1 expression level [1]: 3.038
- Isoc1 expression level [1]: 14.1426
- Kcnj2 expression level [1]: 3.205
- Kcnj10 expression level [1]: 64.1636
- Kif9 expression level [1]: 1.8759
- Kit expression level [1]: 18.7665
- Klhdc7a expression level [1]: 4.613
- Lama5 expression level [1]: 0.8869
- Lamp2 expression level [1]: 40.9038
- Leprel4 expression level [1]: 7.907
- Lingo1 expression level [1]: 88.754
- Llgl2 expression level [1]: 0.4373
- Lmx1a expression level [1]: 0.5034
- Loxl1 expression level [1]: 1.486
- Loxl2 expression level [1]: 0.1912
- Lrp5 expression level [1]: 2.432
- Lrp10 expression level [1]: 14.6733
- Ltc4s expression level [1]: 7.102
- Lypd1 expression level [1]: 47.9728
- Mccc1 expression level [1]: 5.41
- Mfsd7c expression level [1]: 0.65
- Mmp15 expression level [1]: 6.699
- Mpp7 expression level [1]: 1.162
- Myoc expression level [1]: 11.9051
- Myof expression level [1]: 0.8629
- Ndst4 expression level [1]: 5.129
- Nek11 expression level [1]: 0.5801
- Nid2 expression level [1]: 1.141
- Nos1 expression level [1]: 8.7895
- Npas4 expression level [1]: 3.8842
- Npr1 expression level [1]: 1.7036
- Nqo1 expression level [1]: 3.794
- Nt5dc1 expression level [1]: 1.205
- Oca2 expression level [1]: 0.467
- Odz4 expression level [1]: 7.194
- Ooep expression level [1]: 0.07202
- Pcp4l1 expression level [1]: 50.8954
- Pgcp expression level [1]: 8.02
- Phactr2 expression level [1]: 6.295
- Pla2g4e expression level [1]: 1.85
- Plek2 expression level [1]: 0.4301
- Plekha2 expression level [1]: 12.177
- Pltp expression level [1]: 36.9312
- Plxnb2 expression level [1]: 10.316
- Polr1a expression level [1]: 5.4566
- Pon1 expression level [1]: 0.12
- Ppfibp2 expression level [1]: 2.53
- Ppp1r1a expression level [1]: 67.7123
- Ppp1r1b expression level [1]: 37.5707
- Prelp expression level [1]: 9.53
- Prox1 expression level [1]: 14.3616
- Prps2 expression level [1]: 12.0363
- Ptpn14 expression level [1]: 1.315
- Rab20 expression level [1]: 1.273
- Rai14 expression level [1]: 1.053
- Rbp3 expression level [1]: 0.5204
- Rd3 expression level [1]: 0.6656
- Ripk4 expression level [1]: 0.1565
- Rrh expression level [1]: 0.05235
- Rsph4a expression level [1]: 2.9407
- Scg5 expression level [1]: 219.826
- Scn4b expression level [1]: 8.643
- Scube1 expression level [1]: 4.586
- Scube3 expression level [1]: 0.6281
- Sdk1 expression level [1]: 0.6821
- Serpinb1b expression level [1]: 0.9169
- Sfrp5 expression level [1]: 0.5384
- Slc4a10 expression level [1]: 46.0086
- Slc5a3 expression level [1]: 5.289
- Slc12a2 expression level [1]: 20.5749
- Slc12a4 expression level [1]: 5.898
- Slc12a7 expression level [1]: 1.124
- Slc16a2 expression level [1]: 14.2113
- Slc16a4 expression level [1]: 2.157
- Slc16a9 expression level [1]: 1.385
- Slc16a12 expression level [1]: 1.226
- Slc22a6 expression level [1]: 0.7873
- Slc23a2 expression level [1]: 27.4105
- Slc25a39 expression level [1]: 30.7081
- Slc29a4 expression level [1]: 11.9409
- Slc37a2 expression level [1]: 0.8387
- Slc39a4 expression level [1]: 1.073
- Slco1c1 expression level [1]: 20.1851
- Smpdl3a expression level [1]: 19.7502
- Sod3 expression level [1]: 6.1
- Spag16 expression level [1]: 0.4608
- Spint2 expression level [1]: 15.9511
- Sptlc3 expression level [1]: 0.2346
- Ssfa2 expression level [1]: 10.0587
- Stk39 expression level [1]: 28.2125
- Stra6 expression level [1]: 4.817
- Tbc1d1 expression level [1]: 4.993
- Tbc1d2 expression level [1]: 0.8273
- Tbc1d9 expression level [1]: 19.741
- Tbcel expression level [1]: 17.0147
- Tcn2 expression level [1]: 9.139
- Tead1 expression level [1]: 4.075
- Tgfbi expression level [1]: 1.202
- Tgfbr3 expression level [1]: 3.88
- Timp2 expression level [1]: 84.9023
- Tinagl1 expression level [1]: 2.32
- Tjp3 expression level [1]: 0.9513
- Tlr2 expression level [1]: 1.035
- Tmem27 expression level [1]: 0.3657
- Tmem98 expression level [1]: 10.1715
- Tmem108 expression level [1]: 8.4143
- Tns1 expression level [1]: 3.868
- Tspan33 expression level [1]: 15.0442
- Ttc21a expression level [1]: 1.107
- Vamp8 expression level [1]: 13.404
- Vcam1 expression level [1]: 10.2949
- Vcp expression level [1]: 1.545
- Wdfy1 expression level [1]: 7.05
- Wdr16 expression level [1]: 1.6294
- Wfs1 expression level [1]: 43.1125
- Zfp185 expression level [1]: 1.3415
- Zfp605 expression level [1]: 4.398
- rescue of the downregulated genes [1]: 100%
- rescue of the differentially expressed genes to levels comparable to control mice (CI-994 1 mg/kg i.p. daily 1 month, FIG. 1): rescued to near completion
- number of genes rescued by CI-994 treatment (FIG. 1 heatmap, significance level p<0.05): 239 genes
